{"source": "paper PMC10281360", "about": "(Microbial Biotechnology, 2023)", "test_system": "rAbf43A", "test": "HPLC of released arabinose, Michaelis-Menten non-linear regression", "type": "biochemical, metagenome: lignocellulolytic bacterial consortium EMSD5", "settings": "0.05 M citric-Na2HPO4 pH 5.0, 40 °C, 10 min; AXHd3 activity; 0-40.0 mM substrate"}
{"smiles": "OC[C@@H]1O[C@@H](O[C@@H]2[C@@H](O[C@@H]3O[C@@H](CO)[C@H](O)[C@H]3O)[C@H](O[C@@H]3CO[C@@H](O[C@@H]4COC(O)[C@H](O)[C@H]4O)[C@H](O)[C@H]3O)OC[C@H]2O)[C@H](O)[C@H]1O", "note": "(stereo partly drawn) [A2,3XX, 2^3,3^3‐di‐α‐L‐arabinofuranosyl‐xylotriose]", "values": [{"measurement": "Km", "result": 8.03, "unit": "mM"}]}
